In publication PMC4796657, “Functional identification of SLC43A3 as an equilibrative nucleobase transporter involved in purine salvage in mammals” (Scientific Reports, 2015):

Legend:
[1] = molecular target: T1, SLC43A3 (equilibrative nucleobase transporter 1, ENBT1) (Homo sapiens, UniProt Q8NBI5); assay: inhibition of ENBT1-specific [3H]adenine uptake at […]; assay type: cell-based; design: full length, 491 amino acid residues, stably expressed in MDCKII cells
T1 sequence (Q8NBI5 1-491): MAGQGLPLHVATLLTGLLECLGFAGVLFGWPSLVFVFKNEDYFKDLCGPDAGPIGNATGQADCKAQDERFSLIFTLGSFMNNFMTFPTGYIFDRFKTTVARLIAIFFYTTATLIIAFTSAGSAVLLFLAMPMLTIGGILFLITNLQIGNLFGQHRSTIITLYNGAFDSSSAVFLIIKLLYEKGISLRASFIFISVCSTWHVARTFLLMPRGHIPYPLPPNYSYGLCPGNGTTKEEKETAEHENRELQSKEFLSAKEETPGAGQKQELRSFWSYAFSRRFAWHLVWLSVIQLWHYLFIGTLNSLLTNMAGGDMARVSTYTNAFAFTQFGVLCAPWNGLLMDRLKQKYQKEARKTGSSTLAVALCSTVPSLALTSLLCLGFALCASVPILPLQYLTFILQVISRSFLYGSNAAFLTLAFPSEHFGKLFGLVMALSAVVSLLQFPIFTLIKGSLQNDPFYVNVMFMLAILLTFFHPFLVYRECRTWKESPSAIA

[2] = molecular target: T1, SLC43A3 (equilibrative nucleobase transporter 1, ENBT1); assay: cell-based; design: full length, 491 amino acid residues, stably expressed in MDCKII cells; species or system MDCKII stably expressing ENBT1; inhibition of ENBT1-specific [3H]adenine (5 nM) uptake, 40 s, 22 C, mock-subtracted, scintillation counting; settings: MDCK-II; [3H]adenine 5 nM, pH 7.4, 22 C, 40 s; read-out: Uptake rate (% of control)
Procedure: MDCKII cells stably expressing ENBT1 (1.5 × 10^5 cells/well initially) were grown on 24-well plates for 72 h. The cells in each well were preincubated in 0.25 ml of substrate-free uptake buffer (140 mM NaCl, 5 mM KCl, 0.4 mM KH2PO4, 0.8 mM MgSO4, 1.0 mM CaCl2, 25 mM glucose, and 10 mM HEPES, pH 7.4) for 5 min, unless otherwise indicated. Uptake assays were started by replacing the substrate-free uptake buffer for preincubation with one containing the radioisotope-labeled substrate (0.25 ml). All of the procedures were conducted at 22 °C or 37 °C. Assays were stopped by addition of ice-cold substrate-free uptake buffer (2 ml), and the cells were washed two times with 2 ml of the same buffer. The cells were solubilized in 0.5 ml of 0.2 M NaOH solution containing 0.5% SDS at room temperature for 1 h, and the associated radioactivity was measured by [compound left out] scintillation counting. Cellular protein content was determined by the method of Lowry et al.[28] using bovine serum albumin as the standard. Uptake assays were also conducted in mock cells, which were transfected with empty pCI-neo vector, to estimate nonspecific uptake. To further explore the substrate specificity of ENBT1, we examined the effect of various compounds (10 μM for decynium-22 and 200 μM for the others) on the ENBT1-mediated uptake of [^3H]adenine in SLC43A3 cells (Fig. 2D). […] Because these two molecules were transported by SLC43A3 minimally (Fig. 2A), they are likely to be recognized as very poor substrates with affinities extremely low to act as competitive inhibitors. […] We also examined the effect of various amino acids (5 mM), as ENBT1 is a member of the amino acid transporter family; however, none of them affected the adenine uptake activity of SLC43A3 cells (see Supplementary Table S1 online), supporting a previo

[3] = molecular target: T1, SLC43A3 (equilibrative nucleobase transporter 1, ENBT1); assay: inhibition of ENBT1-mediated [3H]hypoxanthine uptake; radiolabeled uptake (apparent Km […]); assay type: cell-based; design: full length, 491 amino acid residues, stably expressed in MDCKII cells
[4] = molecular target: T1, SLC43A3 (equilibrative nucleobase transporter 1, ENBT1); assay: inhibition of ENBT1-mediated [3H]adenine uptake; radiolabeled uptake (apparent Km […]); assay type: cell-based; design: full length, 491 amino acid residues, stably expressed in MDCKII cells
[5] = molecular target: T1, SLC43A3 (equilibrative nucleobase transporter 1, ENBT1); assay: cell-based
[6] = molecular target: T1, SLC43A3 (equilibrative nucleobase transporter 1, ENBT1); assay: inhibition of ENBT1-specific [3H]adenine uptake, about […] at […]; assay type: cell-based; design: full length, 491 amino acid residues, stably expressed in MDCKII cells; settings: read-out: % inhibition at 200 μM

Compound | remaining activity at 5000 µM [2] | also measured
Nc1nc2nc[nH]c2c(=S)[nH]1 [6-thioguanine] |  | inhibition of ENBT1-specific [3H]adenine uptake at 200 uM [1]: purine and its several analogs, such as 6-thioguanine and mercaptopurine, showed inhibitory activities, suggesting that they are also substrates
C[C@H](N)C(=O)O [Alanine] | 103 ± 4% | 
N[C@@H](CCC(=O)O)C(=O)O [Glutamate] | 103 ± 1.6% | 
CC[C@H](C)[C@H](N)C(=O)O [Isoleucine] | 100 ± 1.3% | 
N[C@@H](Cc1ccccc1)C(=O)O [Phenylalanine] | 98.7 ± 1.1% | 
O=C(O)[C@@H]1CCCN1 [Proline] | 103.4 ± 1% | 
N[C@@H](CO)C(=O)O [Serine] | 105 ± 2.2% | 
C[C@@H](O)[C@H](N)C(=O)O [Threonine] | 99.7 ± 0.7% | 
CC(C)[C@H](N)C(=O)O [Valine] | 101 ± 1.6% | 
Nc1ncnc2nc[nH]c12 [adenine] |  | IC50 [3]: 13 µM
Nc1nc2nc[nH]c2c(=O)[nH]1 [guanine] |  | IC50 [4]: 70 µM
O=c1[nH]cnc2nc[nH]c12 [hypoxanthine] |  | IC50 [5]: 350 µM
S=c1[nH]cnc2nc[nH]c12 [mercaptopurine] |  | inhibition of ENBT1-specific [3H]adenine uptake at 200 uM [1]: purine and its several analogs, such as 6-thioguanine and mercaptopurine, showed inhibitory activities, suggesting that they are also substrates
O=[N+]([O-])c1ccc(CSc2ncnc3c2ncn3C2OC(CO)C(O)C2O)cc1 (centres unmarked) [nitrobenzylthioinosine] |  | inhibition at 200 µM [6]: ~40%
c1ncc2nc[nH]c2n1 [purine] |  | inhibition of ENBT1-specific [3H]adenine uptake at 200 uM [1]: purine and its several analogs, such as 6-thioguanine and mercaptopurine, showed inhibitory activities, suggesting that they are also substrates

The next lines start with results.

remaining activity at 5000 µM [2] | Compound | also measured
95.8 ± 1.7% | N=C(N)NCCC[C@H](N)C(=O)O [Arginine] | 
103 ± 2.7% | NC(=O)C[C@H](N)C(=O)O [Asparagine] | 
99.9 ± 1.3% | N[C@@H](CC(=O)O)C(=O)O [Aspartate] | 
104 ± 0.8% | N[C@@H](CS)C(=O)O [Cysteine] | 
105 ± 1.3% | NC(=O)CC[C@H](N)C(=O)O [Glutamine] | 
101 ± 1.8% | N[C@@H](Cc1c[nH]cn1)C(=O)O [Histidine] | 
94 ± 2.5% | CC(C)C[C@H](N)C(=O)O [Leucine] | 
96.6 ± 1.2% | NCCCC[C@H](N)C(=O)O [Lysine] | 
95.8 ± 1.4% | CSCC[C@H](N)C(=O)O [Methionine] | 
95.6 ± 1.8% | N[C@@H](Cc1c[nH]c2ccccc12)C(=O)O [Tryptophan] | 
105.7 ± 1% | N[C@@H](Cc1ccc(O)cc1)C(=O)O [Tyrosine] | 
